Assay results: US20230172940A1, “METHODS OF EXTENDING LIFESPAN BY ADMINISTERING FERROPTOSIS INHIBITORS” (COLLABORATIVE MEDICINAL DEVELOPMENT, LLC, priority 2020, published 2023)
Where a name gives a salt, the structure may show the parent alone.

Key:
C. elegans strain TJ1060 = experiment: Glutathione depletion: survival after diethyl maleate (DEM) exposure; format: in vivo, Caenorhabditis elegans; details: for DEM toxicity (survival): 4-day old worms, 200 μM Lip-1 or 250 μM SIH from late L4
Method: Diethyl maleate (DEM; Sigma-Aldrich) was added to neat DMSO and added to molten NGM at 55° C. to a final concentration of 5^o 10^o 15 or 20 mM DEM and 0.5% v/v DMSO. Plates were seeded with OP50 and used within 24 hours. As above^o data was collected at 25 (±1) ° C. using the temperature sensitive-sterile strain TJ1060. A synchronous population was obtained by transferring egg-laying adults to fresh plates at 16° C. for 2-3 hours. The adults were removed and the plates with eggs then transferred to 25° C. to ensure sterility. After 48 hours at 25° C.^o when worms were at the late L4/young adult stage^o 25-35 nematodes were transferred to fresh plates containing either vehicle control^o 250 μM SIH^o or 200 μM Lip-1. Worms were aged at 25° C. for a further 4 days and then transferred to DEM plates. Survival^o determined by touch-provoked movement^o was scored at 24 and 48 hours after exposure to DEM.
Aging studies were also undertaken to determine changes with age of both survival after DEM exposure and basal glutathione levels. Initial populations were obtained as describe above^o with worms aged on standard NGA plates. Note that here we refer to the age of adults as determined by the number of days following the last larval molt and therefore reflects the number of days of adulthood^o not the time since egg.
For survival with increasing DEM dose response and protection by compounds (Lip-1 and SIH), data was plotted as fraction of animal alive with upper and lower 95% confidence interval, using the Wilson ‘score’ method using asymptotic variance and fitted with a sigmoidal curve (Prism). Pairwise comparisons of treated groups versus control at each concentration of DEM was determined using the N-1 chi-squared test.

DAF-16 = DAF-16 localization (reporter strain TJ356); format: in vivo, Caenorhabditis elegans; details: for DAF-16 nuclear translocation: 250 μM SIH, 200 μM Lip-1
Method: Wild type (strain N2)^o the temperature sensitive-sterile strain TJ1060: spe-9(hc88); fer-15(b26) and the DAF-16 reporter strain TJ356: zls356 [Pdaf-16::daf-16a/b::gfp+rol-6(su1006)] were obtained from the Caenorhabditis Genetics Center. The wild type strain was maintained at 20° C. on standard nematode growth media (NGM) and aged at 20° C. or 25° C. as required. TJ1060 was maintained at 16° C. and also aged at 20° C. or 25° C. as required. TJ1060 was predominately used to remove the inconvenience of progeny production and can be regarded as a proxy for wild type.
We considered whether the higher levels of glutathione in animals treated with SIH ( ) could reflect a hormetic response to sublethal oxidative stress, which has been described for SIH at low concentrations (10 μM) combining with the cellular labile iron pool within hepatocellular carcinoma cells in culture. […] To further discount possible off-target stress responses elicited by our interventions, we interrogated DAF-16 localization. Nuclear localization of the DAF-16 transcription factor is known to be an indicator of […], which occurs under stress conditions. […] Taken together, these findings argue against hormesis mediating the benefits of SIH or Lip-1 under these conditions in C. elegans.

[1] = system: Hydroxynonenal (4-HNE) protein adducts; experiment: Lipid peroxidation: 4-HNE protein adducts (immunoblot); format: in vivo, Caenorhabditis elegans; details: qualitative
Method: Analysis of Hydroxynonenal (4-HNE) protein adducts was also used as a proxy for lipid peroxidation. Duplicate samples of 50 and 200 worms were collected and washed twice in S-basal^o pelleted by centrifugation and the supernatant discarded. These samples (^˜30 μL) were frozen in liquid-N2 and stored at −80° C. until needed. To each sample an 10 μL 4× Bolt LDS sample buffer (Invitrogen) and 3 μL TCEP (Invitrogen) was added and the sample heated to 95° C. for 10 min. Lysates were loaded onto NuPAGE™ 4-12% Bis-Tris acrylamide gels (1.0 mm^o 10-well^o Invitrogen)^o electrophoresed with MES running buffer and then transferred onto 0.45 μm PVDF membrane by electroblot using a Mini Blot module (Invitrogen). 4-HNE protein adducts were detected by an anti 4-HNE protein adduct antibody (1:2000^o AB5605^o Millipore) in Tris-buffer saline with 5% skim milk^o and ECL (GE Healthcare). The membranes were stripped using a 1× ReBlot Strong Antibody Stripping Solution (Merck) for 15 min^o reprobed for tubulin using an anti-Tubulin antibody (1:10^o000^oT6074^o Sigma-Aldrich).

E. coli (strain OP50) = experiment: Disk diffusion test; format: cell-based, Escherichia coli
Source text: C. elegans are bacteriophores and the E. coli (OP50) monoxenic diet can colonize the pharynx and intestine, resulting in death. Consequently, antibiotics are known to extend C. elegans lifespan. In addition, iron chelating compounds, such as EDTA have been reported to have antibiotic properties.

Structure (SMILES)	lethality (C. elegans strain TJ1060; 10 mM DEM, 24-hour exposure, 4-day old adult worms)	death of adult worms (C. elegans strain TJ1060; DEM≥1 mM, 4-day old adult worms, dose- and time-dependent)	DAF-16 nuclear localization (DAF-16; 10 mM DEM, positive control)	DEM toxicity (survival) (C. elegans strain TJ1060)	increase in 4-HNE protein adducts with age [1]	inhibition of E. coli (strain OP50) growth (E. coli (strain OP50))	DAF-16 nuclear translocation (DAF-16)
CCOC(=O)/C=C\C(=O)OCC [DEM, Diethyl maleate]	≈ 50%	induced death	did induce nuclear localization of DAF-16	–	–	–	–
O=C(N/N=C/c1ccccc1O)c1ccncc1 [SIH, Salicylaldehyde isonicotinoyl hydrazone]	–	–	–	rescued	suppressed	no evidence for inhibition	Neither 250 μM SIH nor 200 μM Lip-1 induced DAF-16 nuclear translocation
Clc1cccc(CNC2=Nc3ccccc3NC23CCNCC3)c1 [Lip-1, N-[(3-chlorophenyl)methyl]-spiro[piperidine-4,2′(1′H)-quinoxalin]-3′-amine]	–	–	–	rescued	suppressed	no evidence for inhibition	Neither 250 μM SIH nor 200 μM Lip-1 induced DAF-16 nuclear translocation
